In EP3057951B1, “METHYLENE LINKED QUINOLINYL MODULATORS OF ROR-GAMMA-T” (Janssen Pharmaceutica NV, priority 2013, dated 2015):
Structures can show the parent of a compound that is named as a salt. Where two headings read alike, the source gives them in different places.

What was measured:
[1] = biological target: T1, wild type human RORγt ligand binding domain (RORyt LBD) (Homo sapiens, UniProt P51449); assay: RORγt ThermoFluor assay (thermal shift, binding affinity KD)
T1 construct: His-tag (N); TurboTEV protease cleavage site (ENLYFQG) (N); made in house; host or cells: E. coli (pHIS1, modified pET vector)
T1 sequence (P51449 258-518): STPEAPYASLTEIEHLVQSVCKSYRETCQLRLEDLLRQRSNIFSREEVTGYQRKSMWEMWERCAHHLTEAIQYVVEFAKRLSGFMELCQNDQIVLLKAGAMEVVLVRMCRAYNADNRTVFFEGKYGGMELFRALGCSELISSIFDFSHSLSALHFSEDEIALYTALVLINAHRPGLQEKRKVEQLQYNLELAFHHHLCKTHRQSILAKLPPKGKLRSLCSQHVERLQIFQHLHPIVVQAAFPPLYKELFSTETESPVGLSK

[2] = biological target: T2, wild type human RORγt LBD (Homo sapiens, UniProt P51449); assay: RORγt (LBD) Reporter Assay (GAL4-luciferase, HEK293T cells); assay type: cell-based; details: for inhibition at 6 µM: HEK-293T, read-out: RORγt (LBD) Reporter Assay, % inhibition @ 6 µM, 6 µM compound concentration; for RORγt (LBD) Reporter Assay, % inhibition @ 6 µM: 6 µM compound concentration
T2 construct: expressed in transfected cells; host or cells: HEK293T
T2 sequence (P51449 258-518): T1 sequence (P51449 258-518)

[3] = HEK293T cells, value after the comma with ∼, > or < could not be included in the average

Kd [1] [nM]	IC50 ([2]; HEK293T cells) [nM]	inhibition at 6 µM ([2]; HEK293T cells) [%]	IC50 [2, 3] [nM]	inhibition at 6 µM [2] [%]	RORγt (LBD) Reporter Assay, % inhibition @ 6 µM [2] [%]	RORγt (LBD) Reporter Assay, % inhibition @ 6 µM ([2]; HEK293T cells) [%]	Compound
280	160	108					COc1nc2ccc(C(O)(c3cccnc3)c3ccc(Cl)c(Cl)c3)cc2c(Cl)c1Cc1ccc(-n2cccn2)cc1 (single isomer, unassigned) [Example 161b, (3-(4-(1H-Pyrazol-1-yl)benzyl)-4-chloro-2-methoxyquinolin-6-yl)(3,4-dichlorophenyl)(pyridin-3-yl)methanol]
0.67			13	104			Cc1cc(C(O)(c2ccnc(C(F)(F)F)c2)c2cncn2C)cc2c(C#N)c(Cc3ccc(-n4cccn4)cc3)c(C#N)nc12 (single isomer, unassigned) [Example 83b, 3-(4-(1H-Pyrazol-1-yl)benzyl)-6-(hydroxy(1-methyl-1H-imidazol-5-yl)(2-(trifluoromethyl)pyridin-4-yl)methyl)-8-methylquinoline-2,4-dicarbonitrile]
0.7			3.1	99			COc1nc2ccc(C(O)(c3cnnn3C)c3cnnn3C)cc2c(Cl)c1Cc1ccc(C(F)(F)F)cc1 [Example 12, (4-Chloro-2-methoxy-3-(4-(trifluoromethyl)benzyl)quinolin-6-yl)bis(1-methyl-1H-1,2,3-triazol-5-yl)methanol]
200			> 6000		4		COc1nc2ccc(C(O)(c3ccc(F)cc3)C3CCN(C(C)=O)CC3)cc2c(Cl)c1Cc1ccc(F)cc1 (single isomer, unassigned) [Example 51c, 1-(4-((4-Chloro-3-(4-fluorobenzyl)-2-methoxyquinolin-6-yl)(4-fluorophenyl)(hydroxy)methyl)piperidin-1-yl)ethanone]
1200	1100					96	Cn1cncc1C(O)(c1ccc(C(F)(F)F)nc1)c1ccc2nc(N3CC(O)C3)c(Cc3ccc(-n4cccn4)cc3)c(Cl)c2c1 (single isomer, unassigned) [Example 134c, 1-(4-Chloro-6-{hydroxy(1-methyl-1H-imidazol-5-yl)[6-(trifluoromethyl)pyridin-3-yl]methyl}-3-[4-(1H-pyrazol-1-yl)benzyl]quinolin-2-yl)azetidin-3-ol]
130	~100	101					Cc1ccc(C(O)(c2ccc3nc(N4CCC4)c(Cc4ccc(C(F)(F)F)cc4)c(Cl)c3c2)c2cnnn2C)c(C)n1 (single isomer, unassigned) [Example 140b, {2-Azetidin-1-yl-4-chloro-3-[4-(trifluoromethyl)benzyl]quinolin-6-yl}(2,6-dimethylpyridin-3-yl)(1-methyl-1H-1,2,3-triazol-5-yl)methanol]
0.003			6		100		COc1nc2ccc(C(O)(c3cc(C)nc(C)c3)c3cnnn3C)cc2c(Cl)c1Cc1ccc(C(F)(F)F)cc1 (single isomer, unassigned) [Example 84c, (4-Chloro-2-methoxy-3-(4-(trifluoromethyl)benzyl)quinolin-6-yl)(2,6-dimethylpyridin-4-yl)(1-methyl-1H-1,2,3-triazol-5-yl)methanol]
1.1			3.1	82			COc1nc2ccc(C(O)(c3cnnn3C)c3cnc(C)n3C)cc2c(C#N)c1Cc1ccc(F)cc1 (single isomer, unassigned) [Example 66b, 6-((1,2-Dimethyl-1H-imidazol-5-yl)(hydroxy)(1-methyl-1H-1,2,3-triazol-5-yl)methyl)-3-(4-fluorobenzyl)-2-methoxyquinoline4-carbonitrile]
0.08			10		98		COc1nc2ccc(C(O)(c3ccc(C)nc3C)c3cncn3C)cc2c(Cl)c1Cc1ccc(C(F)(F)F)cc1 (single isomer, unassigned) [Example 88c, (4-Chloro-2-methoxy-3-(4-(trifluoromethyl)benzyl)quinolin-6-yl)(2,6-dimethylpyridin-3-yl)(1-methyl-1H-imidazol-5-yl)methanol]
25			220	78			Cn1cncc1C(O)(c1ccc(Cl)cc1)c1ccc2nc(C(F)(F)F)c(Cc3ccccc3)c(Cl)c2c1 (stereo not drawn) [Example 100, (3-benzyl-4-chloro-2-(trifluoromethyl)quinolin-6-yl)(4-chlorophenyl)(1-methyl-1H-imidazol-5-yl)methanol•TFA]
11	78					102	COc1nc2ccc(C(O)(c3cccnc3)c3ccc(Cl)c(Cl)c3)cc2c(Cl)c1Cc1ccc(-n2cccn2)cc1 (single isomer, unassigned) [Example 161c, (3-(4-(1H-Pyrazol-1-yl)benzyl)-4-chloro-2-methoxyquinolin-6-yl)(3,4-dichlorophenyl)(pyridin-3-yl)methanol]
41	160	93					Cc1cc(C(O)(c2ccc(C(F)(F)F)nc2)c2cncn2C)cc2c(Cl)c(Cc3ccc(-n4cccn4)cc3)c(N3CCC3)nc12 (single isomer, unassigned) [Example 137b, {2-Azetidin-1-yl-4-chloro-8-methyl-3-[4-(1H-pyrazol-1-yl)benzyl]quinolin-6-yl}(1-methyl-1H-imidazol-5-yl)[6-(trifluoromethyl)pyridin-3-yl]methanol]
15	57	96					COc1nc2ccc(C(O)(c3cccnc3)c3ccc(Cl)c(Cl)c3)cc2c(Cl)c1Cc1ccc(-n2cccn2)cc1 (stereo not drawn) [Example 161a, (3-(4-(1H-Pyrazol-1-yl)benzyl)-4-chloro-2-methoxyquinolin-6-yl)(3,4-dichlorophenyl)(pyridin-3-yl)methanol]
7.7			20		101		COc1nc2ccc(C(O)(c3cnnn3C)C3CCN(C(C)=O)CC3)cc2c(Cl)c1Cc1ccc(C(F)(F)F)cc1 (single isomer, unassigned) [Example 74c, 1-(4-((4-Chloro-2-methoxy-3-(4-(trifluoromethyl)benzyl)quinolin-6-yl)(hydroxy)(1-methyl-1H-1,2,3-triazol-5-yl)methyl)piperidin-1-yl)ethanone]
3.9	~7	93					COc1nc2ccc(C(O)(c3ccc(F)cc3)C3CCN(C(C)=O)CC3)cc2c(Cl)c1Cc1ccc(-n2cccn2)cc1 (stereo not drawn) [Example 157a, 1-(4-((3-(4-(1H-Pyrazol-1-yl)benzyl)4-chloro-2-methoxyquinolin-6-yl)(4-fluorophenyl)(hydroxy)methyl)piperidin-1-yl)ethanone]
32			230	96			COc1nc2ccc(C(N)(c3ccc(C(F)(F)F)nc3)c3cncn3C)cc2c(Cl)c1Cc1cc2ccccc2s1 (single isomer, unassigned) [Example 71b, (3-(Benzo[b]thiophen-2-ylmethyl)-4-chloro-2-methoxyquinolin-6-yl)(1-methyl-1H-imidazol-5-yl)(6-(trifluoromethyl)pyridin-3-yl)methanamine]
0.34	2.4	96					COc1nc2ccc(C(O)(c3cncn3C)c3cncn3C)cc2c(Cl)c1Cc1ccc(C(F)(F)F)cc1 [Example 149, (4-Chloro-2-methoxy-3-(4-(trifluoromethyl)benzyl)quinolin-6-yl)bis(1-methyl-1H-imidazol-5-yl)methanol]
